pIC50: −log10 of the molar value. Each block holds one compound with its values, some of them ahead of it. Activity calls are given as the source filed them. No cut-off for these calls is given here.
Columns and labels:
[1] = system: Huh-7; experiment: Antiproliferative activity against human Huh-7 cells assessed as inhibition of cell growth incubated for 72 hrs by MTT assay; assay type: functional, cell-based
[2] = system: PANC-1; experiment: Antiproliferative activity against human PANC-1 cells assessed as inhibition of cell growth incubated for 72 hrs by MTT assay; assay type: functional, cell-based
[3] = Antiproliferative activity against human NCI-H820 cells assessed as inhibition of cell growth incubated for 72 hrs by MTT assay; assay type: functional, cell-based
[4] = system: NCI-H820; experiment: Inhibition of Ki67 expression in human NCI-H820 cells incubated for 48 hrs by Western blot analysis; assay type: functional, cell-based; settings: dose <= 5.0 µM
[5] = Induction of apoptosis in human NCI-H820 cells assessed as viable cells at 2 uM incubated for 48 hrs by Annexin V/FITC staining based flow cytometry analysis (reference value: 98%); assay type: functional; settings: read-out: Activity
[6] = Induction of apoptosis in human NCI-H820 cells assessed as early apoptotic cells at 5 uM incubated for 48 hrs by Annexin V/FITC staining based flow cytometry analysis (reference value: 0.012%); assay type: functional
[7] = Induction of apoptosis in human NCI-H820 cells assessed as early apoptotic cells at 10 uM incubated for 48 hrs by Annexin V/FITC staining based flow cytometry analysis (reference value: 0.012%); assay type: functional
[8] = system: NCI-H820; experiment: Inhibition of Bcl-2 expression in human NCI-H820 cells incubated for 48 hrs by Western blot analysis; assay type: functional, cell-based; settings: dose <= 5.0 µM
[9] = system: NCI-H820; experiment: Downregulation of STAT3 level in human NCI-H820 cells incubated for 48 hrs by Western blot analysis; assay type: functional, cell-based; settings: dose <= 5.0 µM
[10] = system: NCI-H820; experiment: Inhibition of colony formation in human NCI-H820 cells incubated for 7 to 10 days by crystal violet staining based analysis; assay type: functional, cell-based; settings: dose 0.2-5 µM, time 7-10 day
[11] = system: NCI-H820; experiment: Downregulation of Vimentin level in human NCI-H820 cells upto 5 uM incubated for 48 hrs by Western blot analysis; assay type: functional, cell-based
[12] = biological target: Signal transducer and activator of transcription 3 (Homo sapiens) (UniProt P40763); experiment: Inhibition of STAT3 phosphorylation in human NCI-H820 cells incubated for 48 hrs by Western blot analysis; assay type: cell-based; settings: dose <= 5.0 µM
[13] = Induction of apoptosis in human NCI-H820 cells assessed as necrotic cells at 10 uM incubated for 48 hrs by Annexin V/FITC staining based flow cytometry analysis (reference value: 0.060%); assay type: functional
[14] = system: Huh-7; experiment: Inhibition of colony formation in human Huh-7 cells incubated for 7 to 10 days by crystal violet staining based analysis; assay type: functional, cell-based; settings: dose 0.2-5 µM, time 7-10 day
[15] = Induction of apoptosis in human NCI-H820 cells assessed as necrotic cells at 2 uM incubated for 48 hrs by Annexin V/FITC staining based flow cytometry analysis (reference value: 0.060%); assay type: functional
[16] = Induction of apoptosis in human NCI-H820 cells assessed as necrotic cells at 5 uM incubated for 48 hrs by Annexin V/FITC staining based flow cytometry analysis (reference value: 0.060%); assay type: functional
[17] = Induction of apoptosis in human NCI-H820 cells assessed as early apoptotic cells at 2 uM incubated for 48 hrs by Annexin V/FITC staining based flow cytometry analysis (reference value: 0.012%); assay type: functional
[18] = system: PANC-1; experiment: Inhibition of colony formation in human PANC-1 cells incubated for 7 to 10 days by crystal violet staining based analysis; assay type: functional, cell-based; settings: dose 0.2-5 µM, time 7-10 day
[19] = Induction of apoptosis in human NCI-H820 cells assessed as late apoptotic cells at 5 uM incubated for 48 hrs by Annexin V/FITC staining based flow cytometry analysis (reference value: 0.025%); assay type: functional
[20] = system: NCI-H820; experiment: Upregulation of E-cadherin level in human NCI-H820 cells upto 5 uM incubated for 48 hrs by Western blot analysis; assay type: functional, cell-based
[21] = Induction of apoptosis in human NCI-H820 cells assessed as late apoptotic cells at 2 uM incubated for 48 hrs by Annexin V/FITC staining based flow cytometry analysis (reference value: 0.025%); assay type: functional
[22] = system: NCI-H820; experiment: Inhibition of cell migration in human NCI-H820 cells assessed as decrease in migration rate incubated for 48 hrs by wound healing assay; assay type: functional, cell-based; settings: dose <= 5.0 µM
[23] = Induction of apoptosis in human NCI-H820 cells assessed as viable cells at 5 uM incubated for 48 hrs by Annexin V/FITC staining based flow cytometry analysis (reference value: 98%); assay type: functional; settings: read-out: Activity
[24] = system: NCI-H820; experiment: Inhibition of cell migration in human NCI-H820 cells assessed as decrease in migration rate incubated for 48 hrs by transwell assay; assay type: functional, cell-based; settings: dose <= 5.0 µM
[25] = Induction of apoptosis in human NCI-H820 cells assessed as late apoptotic cells at 10 uM incubated for 48 hrs by Annexin V/FITC staining based flow cytometry analysis (reference value: 0.025%); assay type: functional
[26] = system: NCI-H820; experiment: Antitumor activity against human NCI-H820 cells xenografted in BALB/c nude mouse model assessed as reduction in tumor weight at 30 mg/kg, po administered every 2 days; assay type: functional, organism-based; settings: time 2.0 day
[27] = system: NCI-H820; experiment: Antitumor activity against human NCI-H820 cells xenografted in BALB/c nude mouse model assessed as reduction in tumor volume at 30 mg/kg, po administered every 2 days; assay type: functional, organism-based; settings: time 2.0 day

Sequence of Signal transducer and activator of transcription 3 (Homo sapiens) (P40763 whole entry): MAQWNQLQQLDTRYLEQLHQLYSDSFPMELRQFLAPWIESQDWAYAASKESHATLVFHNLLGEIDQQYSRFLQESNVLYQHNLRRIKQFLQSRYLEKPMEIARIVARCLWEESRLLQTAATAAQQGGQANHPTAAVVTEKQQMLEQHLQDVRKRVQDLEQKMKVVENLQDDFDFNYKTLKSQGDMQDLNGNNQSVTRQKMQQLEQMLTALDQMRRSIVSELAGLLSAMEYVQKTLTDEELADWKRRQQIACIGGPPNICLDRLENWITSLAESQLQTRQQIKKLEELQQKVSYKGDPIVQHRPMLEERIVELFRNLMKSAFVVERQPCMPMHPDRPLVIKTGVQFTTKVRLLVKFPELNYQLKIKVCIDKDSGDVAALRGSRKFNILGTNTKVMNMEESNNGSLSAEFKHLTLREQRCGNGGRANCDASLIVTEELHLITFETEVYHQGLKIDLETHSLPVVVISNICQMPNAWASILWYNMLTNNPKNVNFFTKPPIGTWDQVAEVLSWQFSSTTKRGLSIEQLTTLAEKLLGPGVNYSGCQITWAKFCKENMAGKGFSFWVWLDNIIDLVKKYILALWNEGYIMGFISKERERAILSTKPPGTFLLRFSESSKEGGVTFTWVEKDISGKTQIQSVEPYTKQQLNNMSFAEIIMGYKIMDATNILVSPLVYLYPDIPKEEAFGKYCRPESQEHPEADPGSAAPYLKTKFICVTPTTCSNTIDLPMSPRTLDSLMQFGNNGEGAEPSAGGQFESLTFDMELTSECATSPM

pIC50 ([1]; Homo sapiens, Huh-7, 72 h): 5.44 | pIC50 ([2]; Homo sapiens, PANC-1, 72 h): 5.34
Compound: C[C@@]12CC/C=C(/CC(F)(F)F)CC[C@H]3C(CN4CCC[C@H]4CO)C(=O)O[C@@H]3[C@@H]1O2 (some centres not stated)
pIC50 ([3]; Homo sapiens, NCI-H820, 72 h): 5.34

pIC50 ([1]; Homo sapiens, Huh-7, 72 h): 5.44 | pIC50 ([2]; Homo sapiens, PANC-1, 72 h): 5.29
Compound: C=C1C(=O)O[C@H]2[C@H]1CC/C(C)=C/CC[C@@]1(C)O[C@@H]21 [PARTHENOLIDE]
pIC50 ([3]; Homo sapiens, NCI-H820, 72 h): 5.20

Compound: CN(C)CC1C(=O)O[C@H]2[C@H]1CC/C(CC(F)(F)F)=C\CC[C@@]1(C)O[C@@H]21 (some centres not stated) [listing 1 of 3 here]
pIC50 ([1]; huh-7): 5.51 | pIC50 ([2]; panc-1): 5.36 | pIC50 ([3]; nci-h820): 5.36

pIC50 ([1]; Homo sapiens, Huh-7, 72 h): 5.48 | pIC50 ([2]; Homo sapiens, PANC-1, 72 h): 5.44
Compound: C[C@@]12CC/C=C(/CC(F)(F)F)CC[C@H]3C(CN4CCC[C@@H]4CO)C(=O)O[C@@H]3[C@@H]1O2 (some centres not stated)
pIC50 ([3]; Homo sapiens, NCI-H820, 72 h): 5.51

pIC50 ([1]; Homo sapiens, Huh-7, 72 h): 5.63 | inhibition [12]: Dose-dependent-effect | pIC50 ([2]; Homo sapiens, PANC-1, 72 h): 5.67
Compound: C=C1C(=O)O[C@H]2[C@H]1CC/C(CC(F)(F)F)=C\CC[C@@]1(C)O[C@@H]21
inhibition [4]: Dose-dependent-effect | viability at 2 µM [5]: 64% | Activity [6]: 2.77% | Activity [7]: 0.06% | inhibition [8]: Dose-dependent-effect | Activity [9]: Dose-dependent-effect | inhibition [10]: Active | Activity [11]: Active | Activity [13]: 0.55% | inhibition [14]: Active | Activity [15]: 1.4% | Activity [16]: 2.07% | Activity [17]: 0.14% | inhibition [18]: Active | Activity [19]: 6.54% | Activity [20]: Active | Activity [21]: 0.51% | pIC50 ([3]; Homo sapiens, NCI-H820, 72 h): 5.58 | inhibition [22]: Dose-dependent-effect | viability at 5 µM [23]: 86.8% | inhibition [24]: Dose-dependent-effect | Activity [25]: 5.24%

pIC50 ([1]; Homo sapiens, Huh-7, 72 h): 4.83 | pIC50 ([2]; Homo sapiens, PANC-1, 72 h): 4.80
Compound: CN1CCN(CC2C(=O)O[C@H]3[C@H]2CC/C(CC(F)(F)F)=C\CC[C@@]2(C)O[C@@H]32)CC1 (some centres not stated) [listing 1 of 2 here]
pIC50 ([3]; Homo sapiens, NCI-H820, 72 h): 4.51

pIC50 ([1]; Homo sapiens, Huh-7, 72 h): 5.45 | pIC50 ([2]; Homo sapiens, PANC-1, 72 h): 5.25
Compound: C[C@@]12CC/C=C(/CC(F)(F)F)CC[C@H]3C(CN4CCCC4)C(=O)O[C@@H]3[C@@H]1O2 (some centres not stated) [listing 1 of 2 here]
pIC50 ([3]; Homo sapiens, NCI-H820, 72 h): 5.18

pIC50 ([1]; huh-7): 5.62 | pIC50 ([2]; panc-1): 5.27
Compound: C[C@@]12CC/C=C(/CC(F)(F)F)CC[C@H]3C(CN4CCC(O)CC4)C(=O)O[C@@H]3[C@@H]1O2 (some centres not stated) [listing 1 of 2 here]
pIC50 ([3]; nci-h820): 5.31

pIC50 ([1]; Homo sapiens, Huh-7, 72 h): 5.12 | pIC50 ([2]; Homo sapiens, PANC-1, 72 h): 4.85
Compound: C=C1C(=O)O[C@H]2[C@H]1CC/C(C=C(F)F)=C\CC[C@@]1(C)O[C@@H]21
pIC50 ([3]; Homo sapiens, NCI-H820, 72 h): 5.00

pIC50 ([1]; Homo sapiens, Huh-7, 72 h): 5.48 | pIC50 ([2]; Homo sapiens, PANC-1, 72 h): 5.31
Compound: C[C@@]12CC/C=C(/CC(F)(F)F)CC[C@H]3C(CN4CC[C@@H](O)C4)C(=O)O[C@@H]3[C@@H]1O2 (some centres not stated) [listing 1 of 2 here]
pIC50 ([3]; Homo sapiens, NCI-H820, 72 h): 5.34

pIC50 ([1]; Homo sapiens, Huh-7, 72 h): 5.36 | pIC50 ([2]; Homo sapiens, PANC-1, 72 h): 5.24
Compound: C[C@@]12CC/C=C(/CC(F)(F)F)CC[C@H]3C(CN4CCC(O)CC4)C(=O)O[C@@H]3[C@@H]1O2 (some centres not stated) [listing 2 of 2 here]
pIC50 ([3]; Homo sapiens, NCI-H820, 72 h): 5.20

pIC50 ([1]; huh-7): 4.85 | pIC50 ([2]; panc-1): 4.90
Compound: CN1CCN(CC2C(=O)O[C@H]3[C@H]2CC/C(CC(F)(F)F)=C\CC[C@@]2(C)O[C@@H]32)CC1 (some centres not stated) [listing 2 of 2 here]
pIC50 ([3]; nci-h820): 4.65

Compound: CN(C)CC1C(=O)O[C@H]2[C@H]1CC/C(CC(F)(F)F)=C\CC[C@@]1(C)O[C@@H]21 (some centres not stated) [listing 2 of 3 here]
pIC50 ([1]; Homo sapiens, Huh-7, 72 h): 5.58 | pIC50 ([2]; Homo sapiens, PANC-1, 72 h): 5.42 | pIC50 ([3]; Homo sapiens, NCI-H820, 72 h): 5.41

pIC50 ([1]; Homo sapiens, Huh-7, 72 h): 5.50 | pIC50 ([2]; Homo sapiens, PANC-1, 72 h): 5.48
Compound: C=C1C(=O)O[C@H]2[C@H]1CC/C(COC(F)F)=C\CC[C@@]1(C)O[C@@H]21
pIC50 ([3]; Homo sapiens, NCI-H820, 72 h): 5.36

pIC50 ([1]; huh-7): 5.39 | pIC50 ([2]; panc-1): 5.28
Compound: C[C@@]12CC/C=C(/CC(F)(F)F)CC[C@H]3C(CN4CCCC4)C(=O)O[C@@H]3[C@@H]1O2 (some centres not stated) [listing 2 of 2 here]
pIC50 ([3]; nci-h820): 5.19

pIC50 ([1]; huh-7): 5.51 | pIC50 ([2]; panc-1): 5.49
Compound: C[C@@]12CC/C=C(/CC(F)(F)F)CC[C@H]3C(CN4CC[C@@H](O)C4)C(=O)O[C@@H]3[C@@H]1O2 (some centres not stated) [listing 2 of 2 here]
pIC50 ([3]; nci-h820): 5.40

pIC50 ([1]; Homo sapiens, Huh-7, 72 h): 6.00 | pIC50 ([2]; Homo sapiens, PANC-1, 72 h): 5.96
Compound: C=C1C(=O)O[C@H]2[C@H]1CC/C(CSC(F)(F)F)=C\CC[C@@]1(C)O[C@@H]21
pIC50 ([3]; Homo sapiens, NCI-H820, 72 h): 5.86

pIC50 ([1]; Homo sapiens, Huh-7, 72 h): 5.50 | pIC50 ([2]; Homo sapiens, PANC-1, 72 h): 5.44
Compound: CCCN(C)CC1C(=O)O[C@H]2[C@H]1CC/C(CC(F)(F)F)=C\CC[C@@]1(C)O[C@@H]21 (some centres not stated)
pIC50 ([3]; Homo sapiens, NCI-H820, 72 h): 5.26

Compound: CN(C)CC1C(=O)O[C@H]2[C@H]1CC/C(CC(F)(F)F)=C\CC[C@@]1(C)O[C@@H]21 (some centres not stated) [listing 3 of 3 here]
Activity [26]: Active | Activity [27]: Active

pIC50 ([1]; Homo sapiens, Huh-7, 72 h): 5.00 | pIC50 ([2]; Homo sapiens, PANC-1, 72 h): 4.81
Compound: C=C1C(=O)O[C@H]2[C@H]1CC/C(CO)=C\CC[C@@]1(C)O[C@@H]21
pIC50 ([3]; Homo sapiens, NCI-H820, 72 h): 4.88

pIC50 ([1]; Homo sapiens, Huh-7, 72 h): 5.36 | pIC50 ([2]; Homo sapiens, PANC-1, 72 h): 5.34
Compound: CCCNCC1C(=O)O[C@H]2[C@H]1CC/C(CC(F)(F)F)=C\CC[C@@]1(C)O[C@@H]21 (some centres not stated)
pIC50 ([3]; Homo sapiens, NCI-H820, 72 h): 5.36

pIC50 ([1]; Homo sapiens, Huh-7, 72 h): 5.82 | pIC50 ([2]; Homo sapiens, PANC-1, 72 h): 5.87
Compound: C=C1C(=O)O[C@H]2[C@H]1CC/C(CSC#N)=C\CC[C@@]1(C)O[C@@H]21
pIC50 ([3]; Homo sapiens, NCI-H820, 72 h): 5.69

Reference: ChEMBL document CHEMBL6103569, “Discovery of novel fluorine-containing parthenolide analogues as potential antitumor agents” (Eur J Med Chem, 2025)
